Measured values taken from patent publication US20150274639A1, “METHODS OF USE FOR COMPOSITIONS COMPRISING A BIOCIDAL POLYAMINE” (Curza Global, LLC, priority 2013, published 2015).
Several values for one entry are separate records, joined by “and”; a condition that tells them apart may be missing. Equal entries are not always repeated.

Experiments:
MRSA [1] = experiment: Zones of inhibition on cation adjusted Mueller Hinton agar (Example 2); assay type: cell-based, methicillin-resistant Staphylococcus aureus; conditions: 50 μL drop on MRSA lawn, 37° C., 24 hours
Description: (§1) A compound was screened for its ability to create zones of inhibition on cation adjusted Mueller Hinton agar. It is believed that the compound of Example 2 may be represented by the structure disclosed in FIG. 4H. To perform this test, lawns of methicillin-resistant Staphylococcus aureus (MRSA) or Pseudomonas aeruginosa ATCC 27853 were made on cation adjusted Mueller Hinton agar using standard microbiological techniques. Immediately after plating bacteria on agar, a 50 μL drop of the compound was placed onto the agar surface. The compound was tested in duplicate at 100 μg/mL, 50 μg/mL, 25 μg/mL and 10 μg/mL. All plates were incubated at 37° C. for 24 hours.

[2] = test system: Pseudomonas aeruginosa ATCC 27853; experiment: as above; assay type: cell-based; conditions: 50 μL drop on P. aeruginosa lawn, 37° C., 24 hours
Description: as §1

MRSA [3] = experiment: MIC, CLSI M26-A microdilution (Example 2); assay type: cell-based, methicillin-resistant Staphylococcus aureus; conditions: Staphylococcus aureus, 10^5 to 10^2 cells/mL in 24 hours
Description: (§2) The second test determined the minimum inhibitory concentration (MIC) of the compound against MRSA and P. aeruginosa ATCC 27853. […] This definition was consistent with the Clinical and Laboratory Standards Institute (CLSI). More specifically, the microdilution method as outlined in the M26-A CLSI guideline was used. All tests were performed with cation adjusted Mueller Hinton broth.

P. aeruginosa ATCC 27853 = experiment: MIC, CLSI M26-A microdilution (Example 2); assay type: cell-based; conditions: Pseudomonas aeruginosa, ATCC27853, 10^5 to 10^2 cells/mL in 24 hours
Description: as §2

MRSA biofilm [4] = experiment: MBEC assay (Calgary Biofilm Device), 100% eradication (Example 2); assay type: cell-based, methicillin-resistant Staphylococcus aureus; conditions: eradicate 100% of detectable biofilm, listed as PBC-51
Description: (§3) In addition to determining the MIC, the minimum biofilm eradication concentration (MBEC) of PBC-51 was also determined. The MBEC was determined using the MBEC assay, formerly known as the Calgary Biofilm Device, developed by Innovotech. In this instance, the MBEC was defined as the amount of antimicrobial required to eradicate 100% of detectable biofilm after being grown in the MBEC device. To grow the biofilms within this device, 150 μL of solution containing a concentration of 10^5 cells/mL were inoculated into each well of a 96-well plate. A lid containing 96 pegs was placed onto the plate and incubated for 24 hours at 37° C. while being shaken at 110 rpm. Biofilms developed on the surface of the polystyrene pegs within the 96-well plate. After 24 hours, each peg contained between 10^5 and 10^6 cells in well-established biofilms. The lid with pegs was transferred to a 96-well plate that contained 200 μL of varying concentrations of the compound and was incubated at 37° C. for an additional 24 hours. The plate was then sonicated, and the biofilms quantified using a 10-fold dilution series to determine the MBEC.

[5] = test system: P. aeruginosa ATCC 27853 biofilm; experiment: as above; assay type: cell-based, Pseudomonas aeruginosa; conditions: eradicate 100% of detectable biofilm, listed as PBC-51
Description: as §3

MRSA biofilm [6] = experiment: EBEC on PEEK membranes, 100% eradication (Example 2); assay type: cell-based, methicillin-resistant Staphylococcus aureus; conditions: PEEK membrane, eradicate all detectable amounts (100%), listed as PBC-51
Description: (§4) The fourth test that was performed was the effective biofilm eradication concentration (EBEC). To determine the EBEC, biofilms of MRSA and P. aeruginosa ATCC 27853 were grown on the surface of PEEK membranes using a previously established protocol. Briefly, 500 mL of brain heart infusion (BHI) broth were inoculated with 10^5 cells/mL of MRSA or P. aeruginosa. BHI broth was placed into a membrane biofilm reactor and placed on a hot plate set at 34° C. for 24 hours with a stir bar rotating at 130 rpm. Following the initial 24-hour growth period, a 10% BHI broth solution was flowed through the reactor at a rate of 6.944 mL/min for another 24 hours. After 48 hours of growth, each PEEK membrane had biofilm growth on it. In this experiment, there were ˜2×10^11 cells of MRSA per PEEK membrane and −2×10^10 cells of P. aeruginosa per PEEK membrane. The EBEC was defined as the concentration of the compound that was required to eradicate all detectable amounts (100%) of bacteria within the biofilms.

[7] = test system: P. aeruginosa ATCC 27853 biofilm; experiment: as above; assay type: cell-based, Pseudomonas aeruginosa; conditions: PEEK membrane, eradicate all detectable amounts (100%), listed as PBC-51
Description: as §4

Columbia blood agar = experiment: Hemolytic nature on Columbia blood agar; assay type: cell-based; conditions: 100 μg/mL, 50 μg/mL and 25 μg/mL; 20 μL on Columbia blood agar, 37° C., 24 hours
Description: In addition to determining the antimicrobial efficacy of the compound, an initial test was performed to determine its hemolytic nature. To do so, the compound was suspended in concentrations of 100 μg/mL, 50 μg/mL and 25 μg/mL. Twenty μL of each concentration was placed onto the surface of Columbia blood agar and incubated at 37° C. for 24 hours.

[8] = test system: biofilms of MRSA and P. aeruginosa; experiment: Visual observation of biofilm dispersal from PEEK membranes; assay type: cell-based; conditions: 300, 200 and 100 μg/mL
Description: Initial tests based on visual observation were performed to determine the ability of the compound to disperse biofilms. This was done by observing the biofilms of MRSA and P. aeruginosa that had grown on the surface of PEEK membranes after they had been placed in three separate concentrations of the compound (300 μg/mL, 200 μg/mL and 100 μg/mL). Biofilms were observed every 30 minutes to see if they separated from the PEEK membrane.

With CC(C)(C)OC(=O)NCCCNCCCNCc1cc(CNCCCNCCCN)cc(CNCCCNCCCN)c1 [CZ-51] the “concentration at which total clearing was seen” value (MRSA [1]) was 10 µg/mL, the “concentration at which partial clearing was seen” value [2] was 25 µg/mL and the “concentration at which total clearing was seen” value [2] was 50 µg/mL. The MIC (MRSA [3]) was ~1 µg/mL and ~1.88 µM, the MIC (P. aeruginosa ATCC 27853) was ~6 µg/mL and ~11.3 µM and the MBEC (MRSA biofilm [4]) was < 25 μg/mL and < 47 μM. The MBEC [5] was ~35 μg/mL and ~65.92 μM, the EBEC (MRSA biofilm [6]) was ~250 μg/mL and ~470.88 μM and the EBEC [7] was < 100 μg/mL and < 188.33 μM. For the same compound, the hemolytic activity (Columbia blood agar) was “none of these concentrations displayed hemolytic activity”, the “biofilm separated from the PEEK membrane by 24 hours” value [8] was “all detectable amounts of biofilm had separated” and the “biofilms separated from the PEEK membrane by 4 hours” value [8] was “approximately half”. For the same compound, the “time at which biofilms began to separate from the PEEK membranes” value [8] was ≤ 2 h.
